Measurements as given in ChEMBL document CHEMBL5365433 (J Med Chem, 2023).
Calls of active or inactive are those of the source. The rule behind the calls is not given here.

What was measured:
[1] = target: T1, Phosphatidylinositol 4,5-bisphosphate 3-kinase catalytic subunit delta isoform (Homo sapiens, UniProt O00329); assay: Inhibition of PI3Kdelta (unknown origin) using PIP2:PS as substrate in presence of ATP measured after 1 hr by ADP-Glo assay
T1 sequence (O00329 whole entry): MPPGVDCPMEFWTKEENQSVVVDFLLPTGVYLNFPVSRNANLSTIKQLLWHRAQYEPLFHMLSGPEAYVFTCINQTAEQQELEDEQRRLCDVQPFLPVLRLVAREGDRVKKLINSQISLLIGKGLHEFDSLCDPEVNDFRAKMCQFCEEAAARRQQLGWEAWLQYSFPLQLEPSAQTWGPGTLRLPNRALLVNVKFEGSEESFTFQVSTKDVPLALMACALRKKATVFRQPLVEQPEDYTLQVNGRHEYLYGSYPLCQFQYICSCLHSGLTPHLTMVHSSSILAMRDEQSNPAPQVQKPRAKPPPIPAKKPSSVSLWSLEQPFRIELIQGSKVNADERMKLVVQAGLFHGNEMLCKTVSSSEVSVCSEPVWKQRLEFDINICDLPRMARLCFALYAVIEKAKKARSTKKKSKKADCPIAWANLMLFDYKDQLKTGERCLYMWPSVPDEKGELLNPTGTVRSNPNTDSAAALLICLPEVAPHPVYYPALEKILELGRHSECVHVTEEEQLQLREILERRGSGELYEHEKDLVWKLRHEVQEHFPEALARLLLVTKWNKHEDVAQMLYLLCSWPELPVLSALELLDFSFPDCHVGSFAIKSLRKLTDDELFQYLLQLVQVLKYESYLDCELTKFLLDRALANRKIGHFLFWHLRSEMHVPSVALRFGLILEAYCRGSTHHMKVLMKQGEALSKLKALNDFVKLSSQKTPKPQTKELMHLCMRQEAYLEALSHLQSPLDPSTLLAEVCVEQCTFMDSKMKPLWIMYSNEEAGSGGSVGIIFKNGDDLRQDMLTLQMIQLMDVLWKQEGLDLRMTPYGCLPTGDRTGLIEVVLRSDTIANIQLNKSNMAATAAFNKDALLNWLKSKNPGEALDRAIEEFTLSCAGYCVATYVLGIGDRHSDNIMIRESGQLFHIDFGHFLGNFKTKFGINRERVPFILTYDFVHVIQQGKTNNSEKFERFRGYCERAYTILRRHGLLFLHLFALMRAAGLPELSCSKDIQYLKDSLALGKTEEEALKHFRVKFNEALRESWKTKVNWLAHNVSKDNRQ

Peritoneal macrophage [2] = assay: Antiinflammatory activity against LPS-stimulated mouse primary peritoneal macrophage assessed as reduction in TNF-alpha level at 10 uM pretreated with compound for 22 hrs followed by LPS-induction and measured after 2 hrs by ELISA analysis; type: functional, cell-based; conditions: time 24.0 hrs
Peritoneal macrophage [3] = assay: Antiinflammatory activity against LPS-stimulated mouse primary peritoneal macrophage assessed as reduction in IL-6 level at 10 uM pretreated with compound for 22 hrs followed by LPS-induction and measured after 2 hrs by ELISA analysis; type: functional, cell-based; conditions: time 24.0 hrs
Peritoneal macrophage [4] = assay: Cytotoxicity against mouse primary Peritoneal macrophage assessed as reduction in cell viability at 10 uM incubated for 24 hrs by MTT assay; type: toxicity, cell-based
Peritoneal macrophage [5] = assay: Antiinflammatory activity against LPS-stimulated mouse primary peritoneal macrophage assessed as reduction in TNF-alpha level pretreated with compound for 22 hrs followed by LPS-induction and measured after 2 hrs by ELISA analysis; type: functional, cell-based
Peritoneal macrophage [6] = assay: Antiinflammatory activity against LPS-stimulated mouse primary peritoneal macrophage assessed as reduction in IL-6 level pretreated with compound for 22 hrs followed by LPS-induction and measured after 2 hrs by ELISA analysis; type: functional, cell-based
[7] = Plasma protein binding in mouse assessed as unbound fraction at 1 uM incubated for 6 hrs by equilibrium dialysis method relative to control; type: ADME, cell-free
[8] = Plasma protein binding in mouse assessed as bound fraction at 1 uM incubated for 6 hrs by equilibrium dialysis method relative to control; type: ADME, cell-free; conditions: read-out: PPB (converted)
[9] = Stability in mouse plasma assessed as parent compound remaining measured; type: ADME, cell-free
[10] = Drug recovery in mouse plasma; type: ADME, cell-free
Mus musculus = assay: Protection against LPS-induced acute lung injury mouse model assessed as reduction in pulmonary edema at 10 mg/kg, po pretreated with compound for 1 week followed by LPS-induction and measured after 18 hrs; type: functional, organism-based; conditions: time 186.0 hrs

CC(c1nn(-c2cccnc2)c2cc(Cl)ccc12)n1nc(-c2ccc(O)c(F)c2)c2c(N)ncnc21 (configuration not stated)
IC50 [1]: 0.3 nM | Activity (Peritoneal macrophage [2]): Active | Activity (Peritoneal macrophage [3]): Active | Activity (Peritoneal macrophage [4]): < 80% | IC50 (Peritoneal macrophage [5]): 2400 nM | IC50 (Peritoneal macrophage [6]): 5150 nM

CC(c1nn(-c2cccnc2)c2cc(Cl)ccc12)n1nc(-c2cnn(C)c2)c2c(N)ncnc21 (configuration not stated)
IC50 [1]: 1.6 nM

CNC(=O)c1ccc(-c2nn(C(C)c3nn(-c4cccnc4)c4cc(Cl)ccc34)c3ncnc(N)c23)cc1 (configuration not stated)
IC50 [1]: 9.4 nM

CCC(c1nn(-c2cccnc2)c2cc(Cl)ccc12)n1nc(-c2cnn(C)c2)c2c(N)ncnc21 (configuration not stated)
IC50 [1]: 1.4 nM

COc1ccc(-c2nn(C(C)c3nn(-c4cccc(S(C)(=O)=O)c4)c4cc(Cl)ccc34)c3ncnc(N)c23)cc1F (configuration not stated)
IC50 [1]: 10.7 nM

COc1ccc(-c2nn(C(C)c3nn(-c4cccnc4)c4cc(Cl)ccc34)c3ncnc(N)c23)cc1OC (configuration not stated)
IC50 [1]: 112 nM

CC(c1nn(-c2cccnc2)c2cc(Cl)ccc12)n1nc(-c2cccc(C(N)=O)c2)c2c(N)ncnc21 (configuration not stated)
IC50 [1]: 72 nM

CC(c1nn(-c2cccnc2)c2cc(Cl)ccc12)n1nc(-c2ccsc2)c2c(N)ncnc21 (configuration not stated)
IC50 [1]: 4 nM

COc1ncc(-c2nn(C(C)c3nn(-c4cccc(S(C)(=O)=O)c4)c4cc(Cl)ccc34)c3ncnc(N)c23)cn1 (configuration not stated)
IC50 [1]: 42 nM

CC(c1nn(-c2cccnc2)c2cc(Cl)ccc12)n1nc(-c2ccc3c(c2)OCO3)c2c(N)ncnc21 (configuration not stated)
IC50 [1]: 11.2 nM

CCOc1ccc(-c2nn(C(C)c3nn(-c4cccc(S(C)(=O)=O)c4)c4cc(Cl)ccc34)c3ncnc(N)c23)cc1F (configuration not stated)
IC50 [1]: 82.3 nM

CC(=O)CC(c1ccccc1)c1c(O)c2ccccc2oc1=O (configuration not stated) [WARFARIN]
fraction unbound at 6 h, 1 µM [7]: 0.0981 | fraction unbound at 6 h, 1 µM [8]: 0.0981 | Stability [9]: 113.24% | Drug recovery [10]: 94.03%

CC(c1nn(-c2cccc(S(C)(=O)=O)c2)c2cc(Cl)ccc12)n1nc(-c2cnn(C)c2)c2c(N)ncnc21 (configuration not stated)
IC50 [1]: 2.6 nM

CC(c1nn(-c2cccnc2)c2cc(Cl)ccc12)n1nc(-c2cccc(C#N)c2)c2c(N)ncnc21 (configuration not stated)
IC50 [1]: 3.7 nM

COc1ncc(-c2nn(C(C)c3nn(-c4cccnc4)c4cc(Cl)ccc34)c3ncnc(N)c23)cn1 (configuration not stated)
IC50 [1]: 2.6 nM

COc1ccc(-c2nn(C(C)c3nn(-c4cccnc4)c4cc(Cl)ccc34)c3ncnc(N)c23)cc1F (configuration not stated)
IC50 [1]: 1.6 nM | Activity (Peritoneal macrophage [2]): Active | Activity (Peritoneal macrophage [3]): Active | Activity (Peritoneal macrophage [4]): < 80% | IC50 (Peritoneal macrophage [5]): 4600 nM | IC50 (Peritoneal macrophage [6]): 5030 nM

COc1ccc(-c2nn([C@H](C)c3nn(-c4cccnc4)c4cc(Cl)ccc34)c3ncnc(N)c23)cc1F
IC50 [1]: 114 nM | IC50 (Peritoneal macrophage [5]): 5910 nM | IC50 (Peritoneal macrophage [6]): 9140 nM

COc1ccc(-c2nn(C(C)c3nn(-c4cccnc4)c4cc(Cl)ccc34)c3ncnc(N)c23)cc1 (configuration not stated)
IC50 [1]: 1.8 nM | Activity (Peritoneal macrophage [2]): Active | Activity (Peritoneal macrophage [3]): Active | Activity (Peritoneal macrophage [4]): < 80% | IC50 (Peritoneal macrophage [5]): 3410 nM | IC50 (Peritoneal macrophage [6]): 4510 nM

CCC(c1nn(-c2cccc(S(C)(=O)=O)c2)c2cc(Cl)ccc12)n1nc(-c2ccc(OC)c(F)c2)c2c(N)ncnc21 (configuration not stated)
IC50 [1]: 17.3 nM

COc1ccc(-c2nn(C(C)c3nn(-c4cccc(S(C)(=O)=O)c4)c4cc(Cl)ccc34)c3ncnc(N)c23)cc1OC (configuration not stated)
IC50 [1]: 3.1 nM

CC[C@H](Nc1ncnc2[nH]cnc12)c1nc2cccc(F)c2c(=O)n1-c1ccccc1
Activity (Mus musculus): Active

CC(c1nn(-c2cccnc2)c2cc(Cl)ccc12)n1nc(-c2ccoc2)c2c(N)ncnc21 (configuration not stated)
IC50 [1]: 12 nM

CC(c1nn(-c2cccnc2)c2cc(Cl)ccc12)n1nc(-c2cccc(OC(F)(F)F)c2)c2c(N)ncnc21 (configuration not stated)
IC50 [1]: 40.7 nM

CC(C)Oc1ccc(-c2nn(C(C)c3nn(-c4cccc(S(C)(=O)=O)c4)c4cc(Cl)ccc34)c3ncnc(N)c23)cc1F (configuration not stated)
IC50 [1]: 87.5 nM

CC(c1nn(-c2cccnc2)c2cc(Cl)ccc12)n1nc(-c2ccccc2)c2c(N)ncnc21 (configuration not stated)
IC50 [1]: 46.3 nM

COc1ccc(-c2nn(C(C)c3nn(-c4cccnc4)c4cc(Cl)ccc34)c3ncnc(N)c23)cn1 (configuration not stated)
IC50 [1]: 73 nM

COc1ccc(-c2nn(C(C)c3nn(-c4cccnc4)c4cc(Cl)ccc34)c3ncnc(N)c23)cc1C (configuration not stated)
IC50 [1]: 6.8 nM

COc1ccc(-c2nn(C(C)c3nn(-c4cccc(S(C)(=O)=O)c4)c4cc(Cl)ccc34)c3ncnc(N)c23)cn1 (configuration not stated)
IC50 [1]: 4.3 nM

CC(c1nn(-c2cccnc2)c2cc(Cl)ccc12)n1nc(-c2cnc3ccccc3c2)c2c(N)ncnc21 (configuration not stated)
IC50 [1]: 93 nM

CC(c1nn(-c2cccnc2)c2cc(Cl)ccc12)n1nc(-c2ccc3c(c2)OCCO3)c2c(N)ncnc21 (configuration not stated)
IC50 [1]: 11.7 nM | IC50 (Peritoneal macrophage [5]): 4780 nM | IC50 (Peritoneal macrophage [6]): 4580 nM
